# From paper PMC7489219 (Molecular Brain, 2020)
# Structures can show the parent of a compound that is named as a salt.
# Test system: T1, primary mouse cortical neurons
# T1 construct: primary cortical neurons, DIV 10
# Test: cells
# Design: Protection from NMDA-induced (30 uM, 10 min) neuronal death; Hoechst nuclear morphology by automated microscopy
# Conditions: Cortical neurone, 20 h, read-out: % inhibition, inhibition of NMDA-induced cell death (protection score), 30 min pre-treatment
# Description: On DIV 10, compounds were applied to the cells reaching an end concentration of 10 μM. Cells were incubated for 30 min at 37 °C, 5% CO2 before adding NMDA (30 μM). Cells were incubated for another 10 min in the incubator, then washed twice with defined minimal medium containing 10 μM of the respective compound and incubated for an additional 20 h before readout. Untreated (no NMDA) and NMDA-only stimulated wells were treated with 0.1% DMSO. […] After 15 min of incubation at room temperature, cells were washed twice with phosphate buffered saline. […] Dead neurons were identified by amorphous or shrunken nuclei using CellProfiler and CellProfiler Analyst software. For all cell death analyses the experimental unit (N) is defined as an independent experiment using an independent neuronal preparation. For each independent experiment, data from 3 replicate wells (i.e., from 36 images), representing an average of 3000 cells was analyzed per condition. The survival rate S was calculated by dividing the number of living cells by the total number of cells. The survival rate was then used to calculate the protection score according to Scompound−Svehicle/Suntreated−Svehicle×100=%protection , where ‘compound’ refers to compound + NMDA treatment, ‘vehicle’ refers to vehicle + NMDA treatment, and ‘untreated’ refers to DMSO control. […] As a proof of principle, we next used our assay to screen two commercially available drug libraries. In these screens, primary cortical cells were incubated with test compounds at 10 μM concentration for 30 min before addition of 30 μM NMDA. After 10 min NMDA treatment, cells were washed with fresh medium and kept in the presence of test compounds for 20 h until assessment of cell viability. […] This library covers structurally diverse drugs from several fields such as oncology, cardiology, immunology, and neurology/psychiatry.
row,Structure (SMILES),inhibition at 10 µM [%]
1,CC=CC1=C(C(=O)O)N2C(=O)[C@@H](NC(=O)[C@H](N)c3ccc(O)cc3)[C@H]2SC1 (mixture of isomers) [Cefprozil hydrate (Cefzil)],0.674
2,CCC(C)n1ncn(-c2ccc(N3CCN(c4ccc(OC[C@H]5CO[C@](Cn6cncn6)(c6ccc(Cl)cc6Cl)O5)cc4)CC3)cc2)c1=O (mixture of isomers) [Itraconazole (Sporanox)],2.19
3,C[N+](C)(C)CC(O)CC(=O)[O-] (racemic) [DL-Carnitine hydrochloride],2.11
4,CC(C)n1c(/C=C/[C@H](O)C[C@H](O)CC(=O)O)c(-c2ccc(F)cc2)c2ccccc21 (racemic) [Fluvastatin sodium (Lescol)],-2.48
5,CC(=O)N1CCN(c2ccc(OC[C@@H]3CO[C@@](Cn4ccnc4)(c4ccc(Cl)cc4Cl)O3)cc2)CC1 (racemic) [Ketoconazole],-15.9
6,C[C@@H](NCCc1ccc(O)cc1)[C@@H](O)c1ccc(O)cc1 (racemic) [Ritodrine hydrochloride (Yutopar)],3.89
7,COc1cc2c(cc1O)CC[C@@H]1[C@@H]2CC[C@]2(C)[C@@H](O)CC[C@@H]12 [2-Methoxyestradiol],19.8
8,O=C(O)CCCc1c[nH]c2ccccc12 [3-Indolebutyric acid (IBA)],-1.77
9,Cc1cc(=O)oc2cc(O)ccc12 [4-Methylumbelliferone (4-MU)],-0.113
10,NCC(=O)CCC(=O)O [5-Aminolevulinic acid hydrochloride],-1.27
11,N[C@@H](Cc1c[nH]c2ccc(O)cc12)C(=O)O [5-hydroxytryptophan (5-HTP)],-0.632
12,CC(=O)C1=C(O)C=C2Oc3c(C(C)=O)c(O)c(C)c(O)c3[C@@]2(C)C1=O [(+)-Usniacin (D-Usnic acid)],-4.28
13,O=C(O[C@@H]1Cc2c(O)cc(O)cc2O[C@@H]1c1cc(O)c(O)c(O)c1)c1cc(O)c(O)c(O)c1 [(-)-Epigallocatechin gallate],4.13
14,C/C=C1\[C@H]2C=C(C)C[C@]1(N)c1ccc(=O)[nH]c1C2 [(-)-Huperzine A],-1.76
15,C[C@@H](NCCCc1cccc(C(F)(F)F)c1)c1cccc2ccccc12 [AMG-073 HCl (Cinacalcet hydrochloride)],-14.8
16,Nc1ncnc2c1ncn2[C@@H]1O[C@H](COP(=O)(O)OP(=O)(O)OP(=O)(O)O)[C@@H](O)[C@H]1O [ATP (Adenosine-Triphosphate)],0.248
17,CC(=O)O[C@H]1CC[C@@]2(C)C(=CC[C@@H]3[C@@H]2CC[C@]2(C)C(c4cccnc4)=CC[C@@H]32)C1 [Abiraterone Acetate (CB7630)],-0.808
18,NC(=O)c1ncn([C@@H]2O[C@H](CO)[C@@H](O)[C@H]2O)c1N [Acadesine],4.99
19,C[C@H]1O[C@H](O[C@H]2[C@H](O)[C@@H](O)[C@@H](O[C@@H]([C@H](O)[C@@H](O)C=O)[C@H](O)CO)O[C@@H]2CO)[C@H](O)[C@@H](O)[C@@H]1N[C@H]1C=C(CO)[C@@H](O)[C@H](O)[C@H]1O [Acarbose],4.12
20,CC(=O)N[C@@H](CS)C(=O)O [Acetylcysteine],29
21,Cc1cnc(C(=O)O)c[n+]1[O-] [Acipimox],-0.00389
22,Nc1nc2c(ncn2COCCO)c(=O)[nH]1 [Acyclovir (Aciclovir)],-1.44
23,COc1ccc(-c2ccc3cc(C(=O)O)ccc3c2)cc1[C@]12C[C@H]3C[C@H](C[C@H](C3)C1)C2 [Adapalene],63.6
24,"CC(C)(C)C(=O)OCOP(=O)(COCCn1cnc2c(N)ncnc21)OCOC(=O)C(C)(C)C [Adefovir Dipivoxil (Preveon, Hepsera)]",18.8
25,Nc1ncnc2c1ncn2[C@@H]1O[C@H](CO)[C@@H](O)[C@H]1O [Adenosine (Adenocard)],15.3
26,O=c1[nH]cc(F)c(=O)[nH]1 [Adrucil (Fluorouracil)],-16.3

row,Structure (SMILES),inhibition at 10 µM [%]
1,COc1ccc2cccc(CCNC(C)=O)c2c1 [Agomelatine],-12.7
2,CCCSc1ccc2[nH]c(NC(=O)OC)nc2c1 [Albendazole (Albenza)],28.3
3,NCCCC(O)(P(=O)(O)O)P(=O)(O)O [Alendronate (Fosamax)],40.1
4,COc1cc2nc(N(C)CCCNC(=O)C3CCCO3)nc(N)c2cc1OC (stereo not drawn) [Alfuzosin hydrochloride (Uroxatral)],-0.34
5,COCCCOc1cc(C[C@@H](C[C@H](N)[C@@H](O)C[C@H](C(=O)NCC(C)(C)C(N)=O)C(C)C)C(C)C)ccc1OC [Aliskiren hemifumarate],30.5
6,Oc1ncnc2[nH]ncc12 [Allopurinol (Zyloprim)],19.8
7,O=c1[nH]cnc2[nH]ncc12 [Allopurinol Sodium (Aloprim)],21.4
8,O=C1c2c(O)cccc2[C@H]([C@@H]2O[C@H](CO)[C@@H](O)[C@H](O)[C@H]2O)c2cc(CO)cc(O)c21 [Aloin (Barbaloin)],0.91
9,CN(C)c1nc(N(C)C)nc(N(C)C)n1 [Altretamine (Hexalen)],-3.75
10,NC12CC3CC(CC(C3)C1)C2 [Amantadine hydrochloride (Symmetrel)],1.41
11,CC(NC(C)(C)C)C(=O)c1cccc(Cl)c1 (stereo not drawn) [Amfebutamone (Bupropion)],2.08
12,N=C(N)NC(=O)c1nc(Cl)c(N)nc1N [Amiloride hydrochloride (Midamor)],-0.812
13,NCCCCCC(=O)O [Aminocaproic acid (Amicar)],25.5
14,Cn1c(=O)c2[nH]cnc2n(C)c1=O [Aminophylline (Truphylline)],12
15,CCOC(=O)C1=C(COCCN)NC(C)=C(C(=O)OC)C1c1ccccc1Cl (stereo not drawn) [Amlodipine besylate (Norvasc)],-2.44
16,CCC(C)(C)c1ccc(CC(C)CN2C[C@@H](C)O[C@@H](C)C2)cc1 (stereo partly drawn) [Amorolfine Hydrochloride],-45.8
17,CC1(C)S[C@@H]2[C@H](NC(=O)[C@H](N)c3ccc(O)cc3)C(=O)N2[C@H]1C(=O)O [Amoxicillin (Amox)],-1.15
18,CC(C)(C#N)c1cc(Cn2cncn2)cc(C(C)(C)C#N)c1 [Anastrozole],3.89
19,C=C1CC[C@@H]2[C@](C)(CO)[C@H](O)CC[C@@]2(C)[C@@H]1C/C=C1/C(=O)OC[C@H]1O [Andrographolide],-4.01
20,N#CC1(c2ccc(NC(=O)c3cccnc3NCc3ccncc3)cc2)CCCC1 [Apatinib (YN968D1)],-0.459
21,O=c1cc(-c2ccc(O)cc2)oc2cc(O)cc(O)c12 [Apigenin],-0.752
22,COc1cc(C(C)=O)ccc1O [Apocynin (Acetovanillone)],-0.991
23,C[C@@H](O[C@H]1OCCN(Cc2n[nH]c(=O)[nH]2)[C@H]1c1ccc(F)cc1)c1cc(C(F)(F)F)cc(C(F)(F)F)c1 [Aprepitant (MK-0869)],17.6
24,"OC[C@H]1O[C@@H](Oc2ccc(O)cc2)[C@H](O)[C@@H](O)[C@@H]1O [Arbutin (Uva, p-Arbutin)]",-0.469
25,CO[C@H]1O[C@@H]2O[C@@]3(C)CC[C@H]4[C@H](C)CC[C@@H]([C@H]1C)[C@@]24OO3 [Artemether (SM-224)],1.03
